{"source": "patent US20150335678A1", "about": "“METHOD OF ACTIVATING STEM CELLS IN AN ANIMAL AND THE USE OF CHLORINE DIOXIDE FOR PREPARING MEDICINES FOR ACTIVATING STEM CELLS IN AN ANIMAL” (priority 2012, published 2015)", "key": {"[1]": {"tested_on": "cerebral ischemia/reperfusion injury model rats", "assay": "Neural function score in cerebral ischemia/reperfusion injury model (Example 3)", "format": "in vivo, Sprague-Dawley rats", "settings": "for neural function score (median): n=15, scale 0 normal to 5", "experimental": "Male Sprague-Dawley rats with the age of 12 weeks and weight of 250^˜280 g were used in the experiment after acclimating for a week.\nA middle cerebral artery occlusion model was first established in compliance with the method of Longa E Z et al. (Longa E Z, et al. Reversible middle cerebral artery occlusion without craniectomy in rats. Stroke 20:84-91, 1989). More specifically, 0.36 g/kg of 10% chloral hydrate was administered intraperitoneally to rats which had been fasted for 12 hours (although given free access to water) to anesthetize the rats. Next, a midline incision was made in the neck to expose the right common carotid artery. Then, the internal carotid artery and external carotid artery were separated, the posterior carotid artery, which is a branch of the external carotid artery, and the thyroidea arteria were coagulated and severed, the external carotid artery was ligated at the branch of the lingual artery and maxillary artery, a small puncture was formed in the external carotid artery, 4-0 Nylon suture was passed through the common carotid artery from the puncture, and gradually inserted into the internal carotid artery until there was resistance. The length of the Nylon suture was about 18^˜20 mm from the branch of the common carotid artery. As a result of occluding the middle cerebral artery with Nylon suture, an ischemic state was applied for 2 hours to create a middle cerebral artery occlusion model.\nA cerebral ischemia/reperfusion injury model was established by removing the Nylon suture from the middle cerebral artery of the occlusion model and following reperfusion of blood.\nThe first solution was a mixed solution made of sodium chlorite with the concentration of 7.47% and sodium chloride with the concentration of 1.59% with deionized water; the second solution was made of citric acid with the concentration of 16.7% with deionized water. Same volume of solutions were taken out from different vessels with different volumes and mixed up. Allow the solution to mix for 3-5 minutes and dilute it five times with normal saline, and then filter it with 0.22 μm filter membrane of double-deck. The solution was immediately put into injector. The solution was prepared once being used.\nTreatment group (120 rats): A cerebral ischemia/reperfusion injury model was established for the rats already. To administer chlorine dioxide solution everytime that prepared from procedure (3) through carotid artery after the second day the model has established, once a day for total ten days.\nNeural function scores were evaluated once a day after the ischemia/reperfusion injury model established in the 15 rats per group. The scores of neural function disorders were evaluated using the following criteria in compliance with the method of Longa E Z (Longa E Z, et al. Reversible middle cerebral artery occlusion without craniectomy in rats. Stroke 20:84-91, 1989). The results were shown as median.\n1: Contralateral limb bending on infarction focus\n2: Contralateral limb on infarction focus becomes asthenic state when tail is pulled backward\n3: Turning toward opposite side of infarction focus when tail is pulled\n4: Spontaneous turning towards opposite side of infarction focus\n5: Loss of spontaneous movement"}, "alopecia areata": {"tested_on": "alopecia areata", "assay": "Alopecia areata patients, topical solution with dimethyl sulfoxide (Example 4)", "format": "in vivo, human", "experimental": "The first solution was a mixed solution made of sodium chlorite with the concentration of 7.47% and sodium chloride with the concentration of 1.59% with deionized water; the second solution was made of citric acid with the concentration of 16.7% with deionized water.\nSame volume of solutions were taken out from different vessels with different volumes and put into the suitable glass or plastic cups prepared. Allow the solution to mix for 3-5 minutes and then filter the solution with 0.22 μm filter membrane of double-deck, dimethyl sulfoxide was added in a ratio of 1:1, and then smear solution over the alopecia areata with the swab, waiting for 1-2 hours before cleaning the head, the drug was administered once a day according to the method. The first period lasted for 15-25 days, then the drug was stopped for 2-5 months; The second period lasted for 15-25 days in the light of the situation.\nThe subjects consisted of 11 male alopecia areata patients and a patient (the patients are between 22-40 years old.) They administered the activating agent of stem cell as volunteers, see Table 12."}, "[2]": {"tested_on": "CD34-positive mononuclear cells", "assay": "CD34-positive mononuclear cells in peripheral blood of lower limb DVT patients, flow cytometry (Example 2)", "format": "in vivo, human", "settings": "before administration 0.38 ± 0.42, 14 days", "description": "The subjects consisted of 14 male and 6 female lower limb DVT patients with the unilateral limb suffer from the illness, aged from 59 to 76 years old (average age: 67.2 years old). The purpose of the clinical test was explained to all subjects and their consent was obtained before conducting the clinical test.\nThe first solution was a mixed solution made of sodium chlorite with the concentration of 7.47% and sodium chloride with the concentration of 1.59% with deionized water; the second solution was made of citric acid with the concentration of 16.7% with deionized water. Same volume of solutions were taken out from different vessels with different volumes and mixed up. Allow the solution to mix for 3-5 minutes and dilute it 5 times with normal saline, then filter it with 0.22 μm filter membrane of double-deck. The solution was immediately put into injector. The solution was prepared once being used. […]\nFive ml of peripheral blood was collected from the median cubital vein of the forearm of each patient using low molecular weight heparin anticoagulant before administration (before initial administration) and on day 7 and 14 after administration, and the collected blood was immediately stored at 4° C. and measured within 6 hours after collection. […]"}}, "note": "Marks after values point to notes of the source that are not given here."}
{"molecule": "[O][Cl+][O-]", "note": "[chlorine dioxide solution, chlorine dioxide]", "values": [{"measurement": "neural function score (median)", "setting": "[1]; Day 1, model group 3, NaClO2 7.47% + citric acid 16.7% 1:1 diluted five times, carotid artery once a day for ten days after the second day", "result": 3}, {"measurement": "neural function score (median)", "setting": "[1]; Day 2, model group 3, diluted solution via carotid artery once a day for ten days after the second day", "result": 3}, {"measurement": "neural function score (median)", "setting": "[1]; Day 3, model group 3, diluted solution via carotid artery once a day for ten days after the second day", "result": 2}, {"measurement": "neural function score (median)", "setting": "[1]; Day 4, model group 2, diluted solution via carotid artery once a day for ten days after the second day", "result": 2}, {"measurement": "neural function score (median)", "setting": "[1]; Day 5, model group 2, diluted solution via carotid artery once a day for ten days after the second day", "result": 1}, {"measurement": "neural function score (median)", "setting": "[1]; Day 6, model group 2, diluted solution via carotid artery once a day for ten days after the second day", "result": 1}, {"measurement": "neural function score (median)", "setting": "[1]; Day 7, model group 2, diluted solution via carotid artery once a day for ten days after the second day", "result": 1}, {"measurement": "neural function score (median)", "setting": "[1]; Day 8, model group 2, diluted solution via carotid artery once a day for ten days after the second day", "result": 0}, {"measurement": "neural function score (median)", "setting": "[1]; Day 9, model group 1, diluted solution via carotid artery once a day for ten days after the second day", "result": 0}, {"measurement": "neural function score (median)", "setting": "[1]; Day 10, model group 1, diluted solution via carotid artery once a day for ten days after the second day", "result": 0}, {"measurement": "neural function score (median)", "setting": "[1]; Day 11, model group 1, diluted solution via carotid artery once a day for ten days after the second day", "result": 0}, {"measurement": "neural function score (median)", "setting": "[1]; Day 12, model group 1, diluted solution via carotid artery once a day for ten days after the second day", "result": 0}, {"measurement": "neural function score (median)", "setting": "[1]; Day 13, model group 1, diluted solution via carotid artery once a day for ten days after the second day", "result": 0}, {"measurement": "neural function score (median)", "setting": "[1]; Day 14, model group 1, diluted solution via carotid artery once a day for ten days after the second day", "result": 0}, {"measurement": "neural function score (median)", "setting": "[1]; Day 15, model group 1, diluted solution via carotid artery once a day for ten days after the second day", "result": 0}, {"measurement": "neural function score (median)", "setting": "[1]; Day 16, model group 1, diluted solution via carotid artery once a day for ten days after the second day", "result": 0}, {"measurement": "neural function score (median)", "setting": "[1]; Day 17, model group 1, diluted solution via carotid artery once a day for ten days after the second day", "result": 0}, {"measurement": "neural function score (median)", "setting": "[1]; Day 18, model group 1, diluted solution via carotid artery once a day for ten days after the second day", "result": 0}, {"measurement": "neural function score (median)", "setting": "[1]; Day 19, model group 1, diluted solution via carotid artery once a day for ten days after the second day", "result": 0}, {"measurement": "neural function score (median)", "setting": "[1]; Day 20, model group 1, diluted solution via carotid artery once a day for ten days after the second day", "result": 0}, {"measurement": "neural function score (median)", "setting": "[1]; Day 21, model group 1, diluted solution via carotid artery once a day for ten days after the second day", "result": "0**"}, {"measurement": "onset of recovery of neural function, treatment group vs model group", "setting": "[1]; significant particularly on day 7, 8, 9 and 16 after operation", "result": "earlier than that in the model group"}, {"measurement": "time until new hair equably grew, second period of administration", "setting": "alopecia areata; course of disease more than 12 months, 7 patients", "result": "equably grow 3-5 days."}, {"measurement": "time until new hair grew along the alopecia areata area, first period of administration", "setting": "alopecia areata; course of disease more than 12 months, 7 patients, NaClO2 7.47% + citric acid 16.7% 1:1, DMSO 1:1, smeared once a day", "result": "3-5 days after"}, {"measurement": "time until new hair grew, second period of administration", "setting": "alopecia areata; course of disease within 12 months, 5 patients", "result": "3-5 days after"}, {"measurement": "time until new hair grew, first period of administration", "setting": "alopecia areata; course of disease within 12 months, 5 patients, NaClO2 7.47% + citric acid 16.7% 1:1, DMSO 1:1, smeared once a day 15-25 days", "result": "3-5 days after"}, {"measurement": "hair fell off, second period of administration", "setting": "alopecia areata; course of disease within 12 months, 5 patients, second period 15-25 days after 2-5 months off", "result": "About 50% of hair fell"}, {"measurement": "CD34-Positive Mononuclear Cells (ratio among mononuclear cells, mean±SD)", "setting": "[2]; Day 7 after administration, n=20, NaClO2 7.47% + citric acid 16.7% 1:1 diluted 5 times, 10 ml/body/day femoral artery puncture", "result": "0.91 ± 0.51", "unit": "%"}, {"measurement": "CD34-Positive Mononuclear Cells (ratio among mononuclear cells, mean±SD)", "setting": "[2]; Day 14 after administration, n=15, diluted solution 10 ml/body/day femoral artery puncture", "result": "1.4 ± 0.68", "unit": "%"}]}
